Assay [1] concerns LPS-induced TNFα secretion in U 937 cells. Put plainly: Modulation of proinflammatory cytokine production in U 937 cells (transrepression): TNFα. The assay is classed as cell-based. The following applies: Homo sapiens, U 937 cells stimulated with 5 μg/mL LPS, inhibition by Dexamethasone at 10 nM considered as 100%, read-out: % TNF α Inhibition; for inhibition at 0.1 µM: 0.1 μM test compound; for inhibition at 1 µM: 1 μM test compound. The protocol:
(§1) VI) Modulation of Proinflammatory Cytokine Production in U 937 Cells (Determination of Transrepression)
(§2) Testing of compounds in GR-mediated inhibition of LPS-induced TNFα, IL-1β, and IL-6 secretion in U 937 cells.
(§3) Differentiated U 937 cells are incubated for 2 days in RPMI1640 medium containing 10% CCS (charcoal treated calf serum). The cells are transferred to 96 well plates and stimulated with 5 μg/mL LPS (dissolved in PBS) in the presence or absence of dexamethasone or test compound (dissolved in DMSO, final concentration 0.2%). Control cells are treated with 0.2% DMSO. After required incubation periods, proinflammatory cytokine(s) concentrations in the cell supernatant are measured by ELISA, using the “BD OptEIA™ Set human TNF, BD OptEIA™ Set human IL-6, BD OptEIA™ Set human IL-1β.
(§4) TNF α inhibition induced by Dexamethasone at 10 nM concentration was considered as 100% and % inhibition of the test NCE was determined as compared to Dexamethasone. Dose-response curves are calculated by fitting to a non-linear 4-parameter logistic model, and absolute EC50 (or IC50) values for the determination of dissociation are derived from these curves and the corresponding curve for dexamethasone on the same experimental occasion.

The test system of assay [2] is LPS-induced IL-6 secretion in U 937 cells. Put plainly: Modulation of proinflammatory cytokine production in U 937 cells (transrepression): IL-6. The assay is classed as cell-based. As to conditions: Homo sapiens, U 937 cells stimulated with 5 μg/mL LPS, ELISA; for inhibition at 0.1 µM: 0.1 μM test compound; for inhibition at 1 µM: 1 μM test compound. The protocol:
as §1, §2, §3, §4
(In an ELISA, binding on a coated surface is turned into a signal by an enzyme label.)

Broadly, the inhibition is the change of the read-out against control, counted positive when it falls.

Consider `Cc1c(NS(C)(=O)=O)cccc1N(Cc1ccc(C#N)cc1)Cc1ccc(Oc2cc(CO)cc(OCCc3cccnc3)c2)cc1` [Example 76, N-(3-((4-cyanobenzyl)(4-(3-(hydroxymethyl)-5-(2-(pyridin-3-yl)ethoxy)phenoxy)benzyl)amino)-2-methylphenyl)methanesulfonamide], for which, in assay [1], the inhibition at 0.1 µM was 87.6% and the inhibition at 1 µM is 86.2%. For the same molecule, in assay [2], the inhibition at 0.1 µM was found to be 85.7% and the inhibition at 1 µM stood at 88.8%.
As to `Cc1c(NS(C)(=O)=O)cccc1N(Cc1ccccc1)Cc1ccc(Oc2cccc(OCCc3cccnc3)c2)cc1` [Example 78, N-(3-(benzyl(4-(3-(2-(pyridin-3-yl)ethoxy)phenoxy)benzyl)amino)-2-methylphenyl)methanesulfonamide], in assay [1], the inhibition at 0.1 µM came to 67.9% and the inhibition at 1 µM was 83.9%. Moreover, in assay [2], the inhibition at 0.1 µM is 62% and the inhibition at 1 µM is 74%.
For the molecule `Cc1c(NS(C)(=O)=O)cccc1N(Cc1ccc(Oc2cc(OCCc3cccnc3)cc(C(N)=O)c2)cc1)Cc1ccc(C#N)c(F)c1` [Example 83, 3-(4-(((4-cyano-3-fluorobenzyl)(2-methyl-3-(methylsulfonamido)phenyl)amino)methyl)phenoxy)-5-(2-(pyridin-3-yl)ethoxy)benzamide], in assay [1], the inhibition at 0.1 µM was found to be 93.4% and the inhibition at 1 µM was determined as 94.5%. Besides, in assay [2], the inhibition at 0.1 µM came to 95.7% and the inhibition at 1 µM came to 95.1%.
Turning to `CCS(=O)(=O)Nc1cccc(N(Cc2ccc(C#N)cc2)Cc2ccc(Oc3cc(CO)cc(OCc4cccnc4)c3)cc2)c1C` [Example 85, N-(3-((4-cyanobenzyl)(4-(3-(hydroxymethyl)-5-(pyridin-3-ylmethoxy)phenoxy)benzyl)amino)-2-methylphenyl)ethanesulfonamide], in assay [1], the inhibition at 0.1 µM was 88.5% and the inhibition at 1 µM turned out to be 91.2%.
As for `Cc1c(NS(C)(=O)=O)cccc1N(Cc1ccc(C#N)cc1)Cc1ccc(Oc2cc(CO)cc(OCc3cccnc3)c2)cc1` [Example 79, N-(3-((4-cyanobenzyl)(4-(3-(hydroxymethyl)-5-(pyridin-3-ylmethoxy)phenoxy)benzyl)amino)-2-methylphenyl)methanesulfonamide], the inhibition at 0.1 µM in assay [1] is 87.7%; in assay [2] it was 97%. Moreover, the inhibition at 1 µM in assay [1] amounted to 88.2%; in assay [2], 97%.
With `Cc1c(NS(C)(=O)=O)cccc1N(Cc1ccc(Oc2cc(CO)cc(OCC3CCOC3)c2)cc1)Cc1cccc(C#N)c1` (centres unmarked) [Example 80, N-(3-((3-cyanobenzyl)(4-(3-(hydroxymethyl)-5-((tetrahydrofuran-3-yl)methoxy)phenoxy)benzyl)amino)-2-methylphenyl)methanesulfonamide], in assay [1], the inhibition at 0.1 µM was found to be 84.1% and the inhibition at 1 µM was 86.5%.
`Cc1c(NS(C)(=O)=O)cccc1N(Cc1ccc(C#N)cc1)Cc1ccc(Oc2cc(C#N)cc(OCCc3cccnc3)c2)cc1` [Example 84, N-(3-((4-(3-cyano-5-(2-(pyridin-3-yl)ethoxy)phenoxy)benzyl)(4-cyanobenzyl)amino)-2-methylphenyl)methanesulfonamide]: in assay [1], the inhibition at 0.1 µM is 94.6% and the inhibition at 1 µM was determined as 93.7%. Also, in assay [2], the inhibition at 0.1 µM is 95% and the inhibition at 1 µM worked out at 94.9%.
The matching figures for `Cc1c(NS(C)(=O)=O)cccc1N(Cc1ccc(C#N)cc1)Cc1ccc(Oc2cc(C#N)cc(OCC3CCOC3)c2)cc1` (centres unmarked) [Example 82, N-(3-((4-(3-cyano-5-((tetrahydrofuran-3-yl)methoxy)phenoxy)benzyl)(4-cyanobenzyl)amino)-2-methylphenyl)methanesulfonamide]: 50%, 71.1%, 60% and 83%.
The matching figures for `Cc1c(NS(C)(=O)=O)cccc1N(Cc1ccc(C#N)cc1)Cc1ccc(Oc2cccc(OCCc3cccs3)c2)cc1` [Example 35, N-(3-((4-cyanobenzyl)(4-(3-(2-(thiophen-2-yl)ethoxy)phenoxy)benzyl)amino)-2-methylphenyl)methanesulfonamide]: 41.8%, 83.4%, 28% and 54%.
The matching figures for `Cc1c(NS(C)(=O)=O)cccc1N(Cc1ccc(C#N)cc1)Cc1ccc(Oc2cc(OCCc3cccnc3)cc(C(N)=O)c2)cc1` [Example 75, 3-(4-(((4-cyanobenzyl)(2-methyl-3-(methylsulfonamido)phenyl)amino)methyl)phenoxy)-5-(2-(pyridin-3-yl)ethoxy)benzamide]: 75.3%, 100%, 98.2% and 100%.
In the case of `CCS(=O)(=O)Nc1cccc(N(Cc2ccc(Oc3cccc(OCC4CCOC4)c3)cc2)Cc2cccc(C#N)c2)c1C` (centres unmarked) [Example 16, N-(3-((3-cyanobenzyl)(4-(3-((tetrahydrofuran-3-yl)methoxy)phenoxy)benzyl)amino)-2-methylphenyl)ethanesulfonamide], in assay [1], the inhibition at 0.1 µM came out at 63.2% and the inhibition at 1 µM came out at 87.4%. Besides, in assay [2], the inhibition at 0.1 µM came out at 62% and the inhibition at 1 µM came out at 81%.
The matching figures for `CCS(=O)(=O)Nc1cccc(N(Cc2ccc(C#N)cc2)Cc2ccc(Oc3cccc(OCc4ccoc4)c3)cc2)c1C` [Example 20, N-(3-((4-cyanobenzyl)(4-(3-(furan-3-ylmethoxy)phenoxy)benzyl)amino)-2-methylphenyl)ethanesulfonamide]: 88.9%, 93.6%, 92.2% and 97.9%.
As to `CCS(=O)(=O)Nc1cccc(N(Cc2ccc(Oc3cc(CO)cc(OCC4CCOC4)c3)cc2)Cc2cccc(C#N)c2)c1C` (centres unmarked) [Example 86, N-(3-((3-cyanobenzyl)(4-(3-(hydroxymethyl)-5-((tetrahydrofuran-3-yl)methoxy)phenoxy)benzyl)amino)-2-methylphenyl)ethanesulfonamide], in assay [1], the inhibition at 0.1 µM was determined as 95.5% and the inhibition at 1 µM came to 95.6%.
Consider `CCS(=O)(=O)Nc1cccc(N(Cc2ccc(Oc3cccc(OCCc4cccnc4)c3)cc2)Cc2cccc(C#N)c2)c1C` [Example 60, N-(3-((3-cyanobenzyl)(4-(3-(2-(pyridin-3-yl)ethoxy)phenoxy)benzyl)amino)-2-methylphenyl)ethanesulfonamide], for which, in assay [1], the inhibition at 0.1 µM turned out to be 95.1% and the inhibition at 1 µM is 96.3%. In assay [2], the inhibition at 0.1 µM came to 90% and the inhibition at 1 µM was 91.7%.
Consider `Cc1c(NS(C)(=O)=O)cccc1N(Cc1ccc(C#N)cc1)Cc1ccc(Oc2cccc(OCC3CCOC3)c2)cc1` (centres unmarked) [Example 58, N-(3-((4-cyanobenzyl)(4-(3-((tetrahydrofuran-3-yl)methoxy)phenoxy)benzyl)amino)-2-methylphenyl)methanesulfonamide], for which, in assay [1], the inhibition at 0.1 µM stood at 13.1% and the inhibition at 1 µM is 55%. Also, in assay [2], the inhibition at 0.1 µM stood at 45% and the inhibition at 1 µM was determined as 76%.
In the case of `Cc1c(NS(C)(=O)=O)cccc1N(Cc1ccc(C#N)cc1)Cc1ccc(Oc2cc(CO)cc(OCC3CCOC3)c2)cc1` (centres unmarked) [Example 81, N-(3-((4-cyanobenzyl)(4-(3-(hydroxymethyl)-5-((tetrahydrofuran-3-yl)methoxy)phenoxy)benzyl)amino)-2-methylphenyl)methanesulfonamide], in assay [1], the inhibition at 0.1 µM came out at 88.9% and the inhibition at 1 µM is 88.2%.
For `Cc1c(NS(C)(=O)=O)cccc1N(Cc1ccc(Oc2cccc(OCCc3cccnc3)c2)cc1)Cc1cccc(C#N)c1` [Example 62, N-(3-((3-cyanobenzyl)(4-(3-(2-(pyridin-3-yl)ethoxy)phenoxy)benzyl)amino)-2-methylphenyl)methanesulfonamide], in assay [1], the inhibition at 0.1 µM is 52.6% and the inhibition at 1 µM was determined as 83.7%. Besides, in assay [2], the inhibition at 0.1 µM came to 68.4% and the inhibition at 1 µM was 90.8%.
On the same counts, the results for `CNC(=O)c1cc(OCCc2cccnc2)cc(Oc2ccc(CN(Cc3ccc(C#N)cc3)c3cccc(NS(C)(=O)=O)c3C)cc2)c1` [Example 74, 3-(4-(((4-cyanobenzyl)(2-methyl-3-(methylsulfonamido)phenyl)amino)methyl)phenoxy)-N-methyl-5-(2-(pyridin-3-yl)ethoxy)benzamide] are 90.4%, 100%, 100% and 100%.
The matching figures for `Cc1c(NS(C)(=O)=O)cccc1N(Cc1ccc(Oc2cccc(OCC3CCOC3)c2)cc1)Cc1cccc(C#N)c1` (centres unmarked) [Example 55, N-(3-((3-cyanobenzyl)(4-(3-((tetrahydrofuran-3-yl)methoxy)phenoxy)benzyl)amino)-2-methylphenyl)methanesulfonamide]: 1.54%, -1.12%, 55% and 76%.

For the origin of these results see patent publication US20120220590A1, “NOVEL COMPOUNDS AS MODULATORS OF GLUCOCORTICOID RECEPTORS” (priority 2009, published 2012).
